The results in this text go back to patent US10647680B2, “Urea compound, preparation method therefor and medical use thereof” (Ancureall Pharmaceutical (Shanghai) Co., Ltd., priority 2016, dated 2020).

Where only a bound is given, the exact number is not on record here.

For test [1], the system named is MV4-11 (FLT3 ITD+/+ mutant type). In words: In vitro growth inhibition (GI50), MV4-11. The test is classed as cell-based, human. The following applies: Homo sapiens, MV4-11; Cell lines of leukemia; read-out: GI 50 MV4-11 FLT3 (ITD +/+).
For test [2], the system named is MOLM-13 (FLT3 ITD+/− mutant type). In words: In vitro growth inhibition (GI50), MOLM-13. The format is cell-based, human. The settings on record: Homo sapiens, MOLM-13; Cell lines of leukemia; read-out: GI 50 MOLM-13 FLT3 (ITD+/−).
The subject of test [3] is RS4; 11 (FLT3 wild type). In words: In vitro growth inhibition (GI50), RS4; 11. The format is cell-based, human. The settings on record: Homo sapiens, RS4-11; Cell lines of leukemia; read-out: GI 50 RS4: 11 FLT3 (WT).
For test [4], the system named is K562 (FLT3 negative expression, positive expression of BCR-ABL fusion protein). Nature of the test: In vitro growth inhibition (GI50), K562. The test is classed as cell-based. The settings on record: Homo sapiens, Cell lines of leukemia, read-out: GI 50 K562 BCR-ABL.
Test [5] deals with RAMOS (positive expression of Brutons tyrosine protein kinase). Nature of the test: In vitro growth inhibition (GI50), RAMOS. The following applies: Homo sapiens, Cell lines of leukemia, read-out: GI 50 Ramos BTK. The test is classed as cell-based.
Test [6] deals with U937 (FLT3 wild-type). Nature of the test: In vitro growth inhibition (GI50), U937. The format is cell-based. The settings on record: Homo sapiens, U-937; Cell lines of leukemia; read-out: GI 50 U937 FLT 3(WT).
The subject of test [7] is Kasumi-1 (c-Kit N822K mutant type). In words: In vitro growth inhibition (GI50), Kasumi-1. The following applies: Homo sapiens, Cell lines of leukemia, read-out: GI 50 Kasumi-1 Kit (N822K). The format is cell-based. A digest of the protocol:
(§1)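 Cells in RPMI1640 with 10% FBS, seeded at 5–10×10^4 cells/mL, exposed next day to compound at 5,000 nM down to 0.01 nM (2- or 10-fold dilutions, ≤1% solvent) for 3–5 days at 37 °C. CCK8 absorbance at 450 nm, growth rate relative to pre-treatment and solvent controls, GI50 from concentration–growth curve.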

For test [8], the system named is KG-1 (expressing FGFR1OP2-FGFR1 fusion protein). In words: In vitro growth inhibition (GI50), KG-1. The format is cell-based. The following applies: Homo sapiens; Cell lines of leukemia; read-out: GI 50 KG-1 FGFR1OP 2-FGFR1.
In test [9] the test system is HL-60 (FLT3 wild type). Nature of the test: In vitro growth inhibition (GI50), HL-60. The following applies: Homo sapiens, Cell lines of leukemia, read-out: GI 50 HL60 FLT3 (WT). The format is cell-based. A digest of the protocol: as §1
In test [10] the test system is OCI-AML3 (NPMc+ mutant type). In words: In vitro growth inhibition (GI50), OCI-AML3. The test is classed as cell-based. The following applies: Homo sapiens, OCI-AML-3; Cell lines of leukemia; read-out: GI 50 OCI- AML3 NPMc+.

As to `COCCOc1ccc2ncn(-c3ccc(NC(=O)Nc4cc(C(C)(C)C)on4)cc3)c2c1` [Compound 26, 1-(5-tert-butyl-isoxazol-3-yl)-3-{4-[6-(2-methoxyl-ethoxyl)-benzimidazol-1-yl]-phenyl]urea], the GI50 in test [1] was 0.1 to 1 nM; in test [2], 0.1 to 1 nM; in test [3], 100 to 1000 nM; in test [4], 100 to 1000 nM; in test [5], greater than 1000 nM; in test [6], greater than 1000 nM. For the same compound, the GI50 in test [7], in test [8], in [9] and in test [10] was greater than 1000 nM each time.

Regarding `CN(C)CCN(C)c1ccc2ncn(-c3ccc(NC(=O)Nc4cc(C(C)(C)C)on4)cc3)c2c1` [Compound 28, 1-(5-tert-butyl-isoxazol-3-yl)-3-(4-{6-[(2-dimethylamino-ethyl)-methyl-amino]-benzimidazol-1-yl}-phenyl)-urea], the GI50 in [1] is 1 to 10 nM; in [2], 1 to 10 nM; in [3], greater than 1000 nM; in test [4] it was greater than 1000 nM; in [5] it was greater than 1000 nM; in test [6] it was greater than 1000 nM. Further, the GI50 in [7], in [8], in test [9] and in test [10] was greater than 1000 nM each time.

For `CN1CCN(c2ccc3ncn(-c4ccc(NC(=O)Nc5cc(C(C)(C)C)on5)cc4)c3c2)CC1` [Compound 29, 1-(5-tert-butyl-isoxazol-3-yl)-3-{4-[6-(4-methyl-piperazin-1-yl)-benzimidazol-1-yl]-phenyl}-urea], the GI50 is 10 to 100 nM in [1]; 10 to 100 nM in test [2]; greater than 1000 nM in test [3]; greater than 1000 nM in test [4]; greater than 1000 nM in test [5]; greater than 1000 nM in test [6]. In addition, the GI50 in test [7], in [8], in test [9] and in test [10] was greater than 1000 nM throughout.

Regarding `CC(C)(C)c1cc(NC(=O)Nc2ccc(-n3cnc4cccc(OCCN5CCOCC5)c43)cc2)no1` [Compound 30, 1-(5-tert-butyl-isoxazol-3-yl)-3-{4-[7-(2-morpholin-4-yl-ethoxyl)-benzimidazol-1-yl]-phenyl}-urea], the GI50 in [1], in test [2], in test [3], in test [4], in [5] and in test [6] was greater than 1000 nM throughout. Further, the GI50 in test [7] is greater than 1000 nM; in [8], greater than 1000 nM; in test [9] it was 100 to 1000 nM; in test [10], greater than 1000 nM.

Regarding `COc1cc2ncn(-c3ccc(NC(=O)Nc4cc(C(C)(C)C)on4)cc3)c2cc1OC` [Compound 31, 1-(5-tert-butyl-isoxazol-3-yl)-3-[4-(5,6-dimethoxyl-benzimidazol-1-yl)-phenyl]-urea], the GI50 in [1] was 0.1 to 1 nM; in [2] it was 0.1 to 1 nM; in test [3], 100 to 1000 nM; in [4], 100 to 1000 nM; in [5] it was 100 to 1000 nM; in [6], greater than 1000 nM. Besides, the GI50 was 100 to 1000 nM in test [7], greater than 1000 nM in test [8], greater than 1000 nM in [9] and greater than 1000 nM in test [10].

Regarding `Cc1cc2ncn(-c3ccc(NC(=O)Nc4cc(C(C)(C)C)on4)cc3)c2cc1C` [Compound 32, 1-(5-tert-butyl-isoxazol-3-yl)-3-[4-(5,6-dimethyl-benzimidazol-1-yl)-phenyl]-urea], the GI50 in [1] is 1 to 10 nM; in test [2], 1 to 10 nM; in test [3], greater than 1000 nM; in test [4], greater than 1000 nM; in test [5], greater than 1000 nM; in test [6], greater than 1000 nM. For the same compound, the GI50 in test [7], in test [8], in [9] and in test [10] was greater than 1000 nM throughout.

Take `Cc1cc(F)cc2ncn(-c3ccc(NC(=O)Nc4cc(C(C)(C)C)on4)cc3)c12` [Compound 33, 1-(5-tert-butyl-isoxazol-3-yl)-3-[4-(5-fluoro-7-methyl-benzimidazol-1-yl)-phenyl]-urea]: the GI50 in test [1] was 1 to 10 nM; in test [2], 1 to 10 nM; in test [3], greater than 1000 nM; in test [4] it was greater than 1000 nM; in [5], greater than 1000 nM; in [6], greater than 1000 nM. Further, the GI50 was greater than 1000 nM in [7], greater than 1000 nM in test [8], 100 to 1000 nM in test [9] and greater than 1000 nM in test [10].

For `CC(C)(C)c1cc(NC(=O)Nc2ccc(-n3cnc4c(F)cccc43)cc2)no1` [Compound 34, 1-(5-tert-butyl-isoxazol-3-yl)-3-[4-(4-fluoro-benzimidazol-1-yl)-phenyl]-urea], the GI50 was 0.1 to 1 nM in test [1]; 0.1 to 1 nM in [2]; greater than 1000 nM in test [3]; greater than 1000 nM in [4]; greater than 1000 nM in [5]; greater than 1000 nM in [6]. Besides, the GI50 in test [7], in [8], in test [9] and in [10] was greater than 1000 nM in each case.

`Cc1nc2ccccc2n1-c1ccc(NC(=O)Nc2cc(C(C)(C)C)on2)cc1` [Compound 35, 1-(5-tert-butyl-isoxazol-3-yl)-3-[4-(2-methyl-benzimidazol-1-yl)-phenyl]-urea]: the GI50 in test [1] is 100 to 1000 nM; in test [2], 100 to 1000 nM; in [3] it was 100 to 1000 nM; in [4] it was 100 to 1000 nM; in test [5], greater than 1000 nM; in test [6] it was greater than 1000 nM. The GI50 in [7], in test [8], in test [9] and in test [10] was greater than 1000 nM each time.

Regarding `CC(C)(C)c1cc(NC(=O)Nc2ccc(-n3c(Cl)nc4ccccc43)cc2)no1` [Compound 36, 1-(5-tert-butyl-isoxazol-3-yl)-3-[4-(2-chlorobenzimidazol-1-yl)-phenyl]-urea], the GI50 was 100 to 1000 nM in test [1]; 100 to 1000 nM in [2]; greater than 1000 nM in [3]; greater than 1000 nM in test [4]; greater than 1000 nM in test [5]; greater than 1000 nM in test [6]. The GI50 in test [7], in test [8], in test [9] and in test [10] was greater than 1000 nM in each case.

For `Cc1cc(NC(=O)Nc2cc(C(C)(C)C)on2)ccc1-n1cnc2ccccc21` [Compound 37, 1-(4-benzimidazol-1-yl-3-methyl-phenyl)-3-(5-tert-butyl-isoxazol-3-yl)-urea], the GI50 is 100 to 1000 nM in [1]; 100 to 1000 nM in test [2]; greater than 1000 nM in [3]; greater than 1000 nM in test [4]; greater than 1000 nM in [5]; greater than 1000 nM in test [6]. Moreover, the GI50 in [7], in test [8], in [9] and in test [10] was greater than 1000 nM throughout.

For the compound `CC(C)(C)c1cc(NC(=O)Nc2ccc(-n3cnc4ccccc43)c(Cl)c2)no1` [Compound 38, 1-(4-benzimidazol-1-yl-3-chloro-phenyl)-3-(5-tert-butyl-isoxazol-3-yl)-urea], the GI50 is 100 to 1000 nM in test [1]; 100 to 1000 nM in test [2]; greater than 1000 nM in [3]; greater than 1000 nM in [4]; greater than 1000 nM in test [5]; greater than 1000 nM in test [6]. The GI50 in test [7], in test [8], in test [9] and in test [10] was greater than 1000 nM each time.

Turning to `CC(C)(C)c1cc(NC(=O)Nc2ccc(-n3cnc4ccccc43)c(F)c2)no1` [Compound 39, 1-(4-benzimidazol-1-yl-3-fluoro-phenyl)-3-(5-tert-butyl-isoxazol-3-yl)-urea], the GI50 is 100 to 1000 nM in [1]; 100 to 1000 nM in test [2]; greater than 1000 nM in test [3]; greater than 1000 nM in [4]; greater than 1000 nM in test [5]; greater than 1000 nM in test [6]. Moreover, the GI50 in [7], in [8], in test [9] and in test [10] was greater than 1000 nM each time.

As to `CC(C)(C)c1cc(NC(=O)Nc2cc(F)c(-n3cnc4ccccc43)c(F)c2)no1` [Compound 40, 1-(4-benzimidazol-1-yl-3,5-difluoro-phenyl)-3-(5-tert-butyl-isoxazol-3-yl)-urea], the GI50 is 100 to 1000 nM in test [1]; 100 to 1000 nM in test [2]; greater than 1000 nM in [3]; greater than 1000 nM in test [4]; greater than 1000 nM in test [5]; greater than 1000 nM in test [6]. Also, the GI50 in test [7], in [8], in test [9] and in test [10] was greater than 1000 nM in each case.
